Measurements from patent US20250059182A1, “SOS1 INHIBITORS” (Mirati Therapeutics, Inc., priority 2021, published 2025).

Columns and labels:
pERK in MKN1 cells = test: pERK inhibition, In-Cell Western (LI-COR Odyssey), MKN1 cells; assay type: cell-based; conditions: Homo sapiens, MKN-1, Table B; MKN1 or H358 cells (table does not say which); 0.5-1 hour incubation; read-out: IC50 (nM), pERK inhibition
In short: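 IC50 was fitted from % pERK inhibition, calculated as the GAPDH-normalised pERK signal of each well divided by the vehicle mean. Signal was imaged at 700 and 800 nm after fixation, methanol permeabilisation and dual antibody staining. Before fixation, MKN1 cells had received compound for about 0.5–1 h at 37 °C, top concentration 10 µM, nine 3-fold dilutions.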

[1] = target: T1, recombinant human SOS1 polypeptide (amino acids 560-1049) (Homo sapiens, UniProt Q07889); test: HTRF displacement assay: inhibition of labeled tracer binding to SOS1; conditions: Table A, Morrison equation for competitive binding
T1 construct: corresponding to amino acids 560-1049, expressed in E. Coli; made in house; host or cells: E. coli
T1 sequence (Q07889 560-1049): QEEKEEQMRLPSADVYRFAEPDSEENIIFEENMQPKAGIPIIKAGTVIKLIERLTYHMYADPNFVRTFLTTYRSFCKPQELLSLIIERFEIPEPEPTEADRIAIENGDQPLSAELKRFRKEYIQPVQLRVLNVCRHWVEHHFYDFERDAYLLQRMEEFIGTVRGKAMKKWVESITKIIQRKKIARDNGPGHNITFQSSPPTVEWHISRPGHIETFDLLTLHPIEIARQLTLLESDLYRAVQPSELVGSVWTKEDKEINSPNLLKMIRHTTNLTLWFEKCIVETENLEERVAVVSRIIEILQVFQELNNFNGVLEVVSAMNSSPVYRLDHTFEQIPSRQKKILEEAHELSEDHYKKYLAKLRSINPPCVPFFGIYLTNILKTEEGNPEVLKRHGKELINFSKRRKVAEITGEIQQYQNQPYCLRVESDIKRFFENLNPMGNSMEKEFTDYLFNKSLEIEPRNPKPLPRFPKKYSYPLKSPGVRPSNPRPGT

Structure (SMILES) | IC50 (pERK in MKN1 cells) [nM] | Ki [1] [nM]
Cc1c(C#N)cccc1[C@@H](C)Nc1nnc(C)c2cnc(N(C)C[C@H]3CCCN3C)cc12 [Example 1-58, 2-methyl-3-((R)-1-((4-methyl-7-(methyl(((R)-1-methylpyrrolidin-2-yl)methyl)amino)pyrido[3,4-d]pyridazin-1-yl)amino)ethyl)benzonitrile] | 73.8 | 1.89
COCCN1CC2(C1)CN(c1cc3c(N[C@H](C)c4cccc(C#N)c4C)nnc(C)c3cn1)C2 [Example 1-59, (R)-3-(1-((7-(6-(2-methoxyethyl)-2,6-diazaspiro[3.3]heptan-2-yl)-4-methylpyrido[3,4-d]pyridazin-1-yl)amino)ethyl)-2-methylbenzonitrile] | 37.6 | 0.977
CCOCCN1CC2(C1)CN(c1cc3c(N[C@H](C)c4cccc(C#N)c4C)nnc(C)c3cn1)C2 [Example 1-60, (R)-3-(1-((7-(6-(2-ethoxyethyl)-2,6-diazaspiro[3.3]heptan-2-yl)-4-methylpyrido[3,4-d]pyridazin-1-yl)amino)ethyl)-2-methylbenzonitrile] | 39.9 | 0.93
Cc1c(C#N)cccc1[C@@H](C)Nc1nnc(C)c2cnc(N3CC4(CN(CCO)C4)C3)cc12 [Example 1-61, (R)-3-(1-((7-(6-(2-hydroxyethyl)-2,6-diazaspiro[3.3]heptan-2-yl)-4-methylpyrido[3,4-d]pyridazin-1-yl)amino)ethyl)-2-methylbenzonitrile] | 1340 | 0.797
Cc1c(C#N)cccc1[C@@H](C)Nc1nnc(C)c2cnc(N3CC4(C3)CN(C(C)C)C4)cc12 [Example 1-62, (R)-3-(1-((7-(6-isopropyl-2,6-diazaspiro[3.3]heptan-2-yl)-4-methylpyrido[3,4-d]pyridazin-1-yl)amino)ethyl)-2-methylbenzonitrile] | 37.6 | 0.545
Cc1c(C#N)cccc1[C@@H](C)Nc1nnc(C)c2cnc(N3CC4(CC(N(C)C)C4)C3)cc12 [Example 1-63, (R)-3-(1-((7-(6-(dimethylamino)-2-azaspiro[3.3]heptan-2-yl)-4-methylpyrido[3,4-d]pyridazin-1-yl)amino)ethyl)-2-methylbenzonitrile] | 48.9 | 0.664
Cc1c([C@@H](C)Nc2nnc(C)c3cnc(N(C)[C@H]4CCNC4)cc23)cccc1C(F)(F)F [Example 1-64, N^7,4-dimethyl-N^1-((R)-1-(2-methyl-3-(trifluoromethyl)phenyl)ethyl)-N^7-((S)-pyrrolidin-3-yl)pyrido[3,4-d]pyridazine-1,7-diamine] | 66.3 | 0.246
Cc1nnc(N[C@H](C)c2cccc(C(F)(F)F)c2F)c2cc(N(C)[C@H]3CCNC3)ncc12 [Example 1-65, N^1-((R)-1-(2-fluoro-3-(trifluoromethyl)phenyl)ethyl)-N^7,4-dimethyl-N^7-((S)-pyrrolidin-3-yl)pyrido[3,4-d]pyridazine-1,7-diamine] | 49.7 | 0.505
Cc1c([C@@H](C)Nc2nnc(C)c3cnc(N4CC5(CC(N(C)C)C5)C4)cc23)cccc1C(F)(F)F [Example 1-66, (R)-7-(6-(dimethylamino)-2-azaspiro[3.3]heptan-2-yl)-4-methyl-N-(1-(2-methyl-3-(trifluoromethyl)phenyl)ethyl)pyrido[3,4-d]pyridazin-1-amine] | 32.4 | 0.106
Cc1c(C#N)cccc1[C@@H](C)Nc1nnc(C)c2cnc(N3CCN(C)C(C)(C)C3)cc12 [Example 1-69, (R)-2-methyl-3-(1-((4-methyl-7-(3,3,4-trimethylpiperazin-1-yl)pyrido[3,4-d]pyridazin-1-yl)amino)ethyl)benzonitrile] | 39 | 0.849
Cc1c(C#N)cccc1[C@@H](C)Nc1nnc(C)c2cnc(N3CCN(C(C)C)CC3)cc12 [Example 1-70, (R)-3-(1-((7-(4-isopropylpiperazin-1-yl)-4-methylpyrido[3,4-d]pyridazin-1-yl)amino)ethyl)-2-methylbenzonitrile] | 44.2 | 0.927
Cc1c(C#N)cccc1[C@@H](C)Nc1nnc(C)c2cnc(N(C)[C@H]3CCOC3)cc12 [Example 1-71, 2-methyl-3-((R)-1-((4-methyl-7-(methyl((S)-tetrahydrofuran-3-yl)amino)pyrido[3,4-d]pyridazin-1-yl)amino)ethyl)benzonitrile] | 47.3 | 4.69
Cc1nnc(N[C@H](C)c2cccc(C(F)(F)F)c2F)c2cc(N(C)[C@H]3CCOC3)ncc12 [Example 1-72, N^1-((R)-1-(2-fluoro-3-(trifluoromethyl)phenyl)ethyl)-N^7,4-dimethyl-N^7-((S)-tetrahydrofuran-3-yl)pyrido[3,4-d]pyridazine-1,7-diamine] | 118 | 1.74
Cc1nnc(N[C@H](C)c2cccc(C(F)(F)F)c2F)c2cc(N(C)[C@@H]3CCOC3)ncc12 [Example 1-73, N^1-((R)-1-(2-fluoro-3-(trifluoromethyl)phenyl)ethyl)-N^7,4-dimethyl-N^7-((R)-tetrahydrofuran-3-yl)pyrido[3,4-d]pyridazine-1,7-diamine] | 54.8 | 1.16
Cc1c(C#N)cccc1[C@@H](C)Nc1nnc(C)c2cnc(N(C)[C@@H]3CCOC3)cc12 [Example 1-74, 2-methyl-3-((R)-1-((4-methyl-7-(methyl((R)-tetrahydrofuran-3-yl)amino)pyrido[3,4-d]pyridazin-1-yl)amino)ethyl)benzonitrile] | 39.9 | 2.34
Cc1nnc(N[C@H](C)c2cccc(C(F)(F)F)c2F)c2cc(N(C)[C@@H]3CCN(C(C)C)C3)ncc12 [Example 1-76, N^1-((R)-1-(2-fluoro-3-(trifluoromethyl)phenyl)ethyl)-N^7-((R)-1-isopropylpyrrolidin-3-yl)-N^7,4-dimethylpyrido[3,4-d]pyridazine-1,7-diamine] | 119 | 0.367
Cc1nnc(N[C@H](C)c2cccc(C(F)(F)F)c2F)c2cc(N(C)[C@H]3CCN(C(C)C)C3)ncc12 [Example 1-77, N^1-((R)-1-(2-fluoro-3-(trifluoromethyl)phenyl)ethyl)-N^7-((S)-1-isopropylpyrrolidin-3-yl)-N^7,4-dimethylpyrido[3,4-d]pyridazine-1,7-diamine] | 121 | 0.647
Cc1c(C#N)cccc1[C@@H](C)Nc1nnc(C)c2cnc(N(C)[C@H]3CCCN(C)C3)cc12 [Example 1-81, 2-methyl-3-((R)-1-((4-methyl-7-(methyl((S)-1-methylpiperidin-3-yl)amino)pyrido[3,4-d]pyridazin-1-yl)amino)ethyl)benzonitrile] | 62.4 | 0.865
Cc1c(C#N)cccc1[C@@H](C)Nc1nnc(C)c2cnc(N(C)[C@@H]3CCCN(C)C3)cc12 [Example 1-82, 2-methyl-3-((R)-1-((4-methyl-7-(methyl((R)-1-methylpiperidin-3-yl)amino)pyrido[3,4-d]pyridazin-1-yl)amino)ethyl)benzonitrile] | 85.2 | 1.16
Cc1nnc(N[C@H](C)c2cccc(C(F)(F)F)c2F)c2cc(N(C)C3CCN(C)CC3)ncc12 [Example 1-83, (R)-N^1-(1-(2-fluoro-3-(trifluoromethyl)phenyl)ethyl)-N^7,4-dimethyl-N^7-(1-methylpiperidin-4-yl)pyrido[3,4-d]pyridazine-1,7-diamine] | 82.8 | 0.788
Cc1c(C#N)cccc1[C@@H](C)Nc1nnc(C)c2cnc(N3CCS(=N)(=O)CC3)cc12 [Example 1-84, (R)-3-(1-((7-(1-imino-1-oxido-thiomorpholino)-4-methylpyrido[3,4-d]pyridazin-1-yl)amino)ethyl)-2-methylbenzonitrile] | 2730 | 2.34
Cc1nnc(N[C@H](C)c2cccc(C(F)(F)F)c2F)c2cc(N(C)[C@H]3CCCN(C)C3)ncc12 [Example 1-85, N^1-((R)-1-(2-fluoro-3-(trifluoromethyl)phenyl)ethyl)-N^7,4-dimethyl-N^7-((S)-1-methylpiperidin-3-yl)pyrido[3,4-d]pyridazine-1,7-diamine] | 185 | 0.662
Cc1nnc(N[C@H](C)c2cccc(C(F)(F)F)c2F)c2cc(N3CC[C@@H](N(C)C)C3)ncc12 [Example 1-86, 7-((R)-3-(dimethylamino)pyrrolidin-1-yl)-N-((R)-1-(2-fluoro-3-(trifluoromethyl)phenyl)ethyl)-4-methylpyrido[3,4-d]pyridazin-1-amine] | 50.8 | 0.372
Cc1nnc(N[C@H](C)c2cccc(C(F)(F)F)c2F)c2cc(N3CC4(CNC4)C3)ncc12 [Example 1-87, (R)-N-(1-(2-fluoro-3-(trifluoromethyl)phenyl)ethyl)-4-methyl-7-(2,6-diazaspiro[3.3]heptan-2-yl)pyrido[3,4-d]pyridazin-1-amine] | 273 | 0.524
CCN1CC[C@@H](N(C)c2cc3c(N[C@H](C)c4cccc(C#N)c4C)nnc(C)c3cn2)C1 [Example 1-88, 3-((R)-1-((7-(((R)-1-ethylpyrrolidin-3-yl)(methyl)amino)-4-methylpyrido[3,4-d]pyridazin-1-yl)amino)ethyl)-2-methylbenzonitrile] | 35.5 | 1.37
